Measurements: PubChem BioAssay (NCI)
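1) Cells in 96-well plates. 2) Compound, 48 h, 5 concentrations. 3) Linear interpolation between surrounding doses. 4) Unreached endpoint = highest concentration. Here, GI50 denotes the concentration required for 50% inhibition of growth. Definition used: TGI = concentration required for complete inhibition of growth.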

Assays:
Assay in all cases: NCI tumour cell line growth inhibition, 48 h
[1] = system: NCI-H23 lung
[2] = system: CCRF-CEM leukemia
[3] = system: HCC-2998 colon
[4] = system: HL-60(TB) leukemia
[5] = system: UACC-62 melanoma
[6] = system: ACHN renal
[7] = system: HCT-116 colon
[8] = system: IGROV1 ovarian
[9] = system: PC-3 prostate
[10] = system: SR leukemia

Row | SMILES | GI50 [1] [µM] | TGI [1] [µM] | GI50 [2] [µM] | TGI [2] [µM] | GI50 [3] [µM] | TGI [3] [µM] | GI50 [4] [µM] | TGI [4] [µM] | GI50 [5] [µM] | TGI [5] [µM] | GI50 [6] [µM] | TGI [6] [µM] | GI50 [7] [µM] | TGI [7] [µM] | TGI [8] [µM] | TGI [9] [µM] | TGI [10] [µM]
1 | CO[C@]1(CN2CCN3CCCC[C@@H]3C2)/C=C/C[C@H](C)[C@@H](C)S(=O)(=O)NC(=O)c2ccc3c(c2)N(C[C@@H]2CC[C@H]21)C[C@@]1(CCCc2cc(Cl)ccc21)CO3 | 1.03 | 2.29 | 1.44 | 13.3 | 1.4 | 2.73 | 0.0297 | 0.153 | 0.148 | 1.22 | 1.86 | 3.9 | 2.01 | 4.79 | – | – | –
2 | COc1ccc(CCN2CCc3c(C)c(C#N)c4nc5ccccc5n4c32)cc1OC | – | > 100 | – | > 100 | – | > 100 | – | > 100 | – | 95.3 | – | > 100 | – | > 100 | > 100 | > 100 | –
3 | NC(=O)CO/N=C1/C(c2c(O)[nH]c3ccccc23)=Nc2ccccc21 | – | > 100 | – | > 100 | – | – | – | > 100 | – | > 100 | – | > 100 | – | > 100 | > 100 | > 100 | > 56.9
4 | CSc1nc(NC(C)C)c2c(n1)Sc1nc3ccccc3n1C2O (stereo unspecified) | – | > 100 | – | 4.95 | – | > 100 | – | – | – | – | – | 81.8 | – | > 100 | > 100 | > 100 | > 100
5 | CCOC(=O)C1CCCCN1CCc1c[nH]c2ccccc12 (stereo unspecified) | – | > 100 | – | > 100 | – | > 100 | – | – | – | > 100 | – | > 100 | – | > 100 | > 100 | > 100 | > 100
6 | N#Cc1nc(C#N)n(C(=O)c2ccccc2)c1NC(=O)c1ccccc1 | – | > 100 | – | > 100 | – | > 100 | – | > 100 | – | > 100 | – | > 100 | – | > 100 | > 100 | > 100 | –
7 | Cc1ccc(S(=O)(=O)N(CC(O)COc2ccccc2)c2ccc(F)cc2F)cc1 (stereo unspecified) | – | 27.7 | – | 53.8 | – | 29.7 | – | 57.6 | – | 31.9 | – | 30.6 | – | – | – | 25.3 | 73.6
8 | Cc1cc2c(c(=O)n1C)SCC2 | – | > 100 | – | > 100 | – | > 100 | – | – | – | > 100 | – | > 100 | – | > 100 | > 100 | > 100 | > 100
9 | CC(=O)CC(=O)CCC(=O)O | – | > 100 | – | – | – | > 100 | – | > 100 | – | – | – | > 100 | – | > 100 | > 100 | – | > 100
10 | COC(=O)[C@@H]1CN(C(=O)c2ccccc2)C(=O)N1C(=O)OCc1ccccc1 | – | > 100 | – | > 100 | – | > 100 | – | > 100 | – | > 100 | – | > 100 | – | > 100 | > 100 | – | > 100
11 | CC(=O)O[C@H]1CC[C@@]2(C)[C@H](CC[C@@H]3[C@@H]2CC[C@]2(C)[C@@H](c4ccc(=O)oc4)C[C@H]4O[C@]342)C1 | – | 1.83 | – | 1.52 | – | 8.88 | – | 0.592 | – | 3.46 | – | – | – | 4.63 | 11.3 | – | –
12 | COc1c(C)c(C/C=C(\C)CC/C=C(\C)CCC=C(C)C)c(OC)c(OC)c1OC | – | > 100 | – | > 100 | – | > 100 | – | – | – | > 100 | – | > 100 | – | > 100 | > 100 | > 100 | > 100
13 | Cc1cc2cc3c(cc2c(-c2ccc(N)cc2)n1)OCO3 | – | > 100 | – | > 100 | – | – | – | 47.3 | – | > 100 | – | > 100 | – | > 100 | 59.5 | > 100 | 52.5
14 | CC1(C2CCC3(C)OC3C2)CO1 (stereo unspecified) | – | > 100 | – | > 100 | – | > 100 | – | > 100 | – | > 100 | – | > 100 | – | > 100 | > 100 | – | > 100
15 | CCOP(=O)(OCC)/C(C#N)=C/c1cccn1Cc1ccccc1 | – | > 100 | – | > 100 | – | > 100 | – | – | – | 55 | – | > 100 | – | 39.7 | > 100 | > 100 | > 100
16 | CC(=O)/C(=C\c1ccc(Cl)c(Cl)c1)C(=O)C(C)CN(C)C (stereo unspecified) | – | 30.6 | – | 0.116 | – | 9.66 | – | 5.36 | – | – | – | 17.9 | – | 6.79 | 4.88 | 17 | 5.21
17 | CN(C)C(=S)Oc1ccc2ccc(=O)oc2c1 | – | > 100 | – | – | – | > 100 | – | > 100 | – | > 100 | – | > 100 | – | > 100 | > 100 | > 100 | > 100
18 | O=C(CC1Sc2ccccc2NC1=O)Nc1ccc(Cl)cc1 (stereo unspecified) | – | > 100 | – | > 100 | – | > 100 | – | > 100 | – | > 100 | – | > 100 | – | > 100 | > 100 | – | > 100
19 | CSc1ccc(/C=C2\N=C(c3ccccc3)N(/N=C/c3cc4cc(C)ccc4nc3Cl)C2=O)cc1 | – | – | – | > 100 | – | 35.5 | – | 47.5 | – | 33.7 | – | 35.1 | – | 33.2 | 35 | 38 | 44.2
20 | CN1C(=O)C(O)CC1c1cccc(C(F)(F)F)c1 (stereo unspecified) | – | > 100 | – | > 100 | – | > 100 | – | > 100 | – | > 100 | – | > 100 | – | > 100 | > 100 | > 100 | –
21 | CS(=O)(=O)NC12CCC(c3ccccc31)c1ccccc12 | – | > 100 | – | > 100 | – | – | – | > 100 | – | > 100 | – | > 100 | – | > 100 | > 100 | > 100 | > 100
22 | CCOC(=O)c1cn(C)c(=S)n2c1nc1ccccc12 | – | > 100 | – | > 100 | – | > 100 | – | – | – | > 100 | – | > 100 | – | > 100 | > 100 | > 100 | > 100
23 | S=C(NCc1ccccc1)N/N=C/c1ccccn1 | – | > 100 | – | – | – | > 68.5 | – | 0.183 | – | 25.1 | – | > 56.1 | – | 15.4 | > 62.8 | > 100 | > 21
